As a reminder, the melting point is the temperature, or range, at which the solid turns liquid.

One data set has as its target PLK4 (h) (Homo sapiens, UniProt O00444). The data set can be described thus: PLK-4 human kinase assay (SPA). The class given is biochemical. The note with it: read-out: PLK4 pIC50 (converted). In short, it runs like this:
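Radiometric readout: 33P-labelled peptide captured on streptavidin SPA beads after EDTA stop, imaged by Leadseeker. Reaction ran 60 min at room temperature in Hepes pH 8.0 buffer. It contained 1 μM ATP with 2 nM [γ-33P]ATP, 10 μM biotinylated peptide and PLK4 (h) at 19 μg/ml.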

The target in the next data set is AuroraB (h) (Homo sapiens, UniProt Q96GD4). The data set is described as follows: Aurora-B human kinase assay (SPA). It counts as biochemical. The note with it: read-out: AuroraB pIC50 (converted). In short, it runs like this: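 Scintillation proximity assay: AuroraB (h) at 0.5 μg/ml with 3 μM biotinylated peptide, 0.5 μM ATP and 2.2 nM [γ-33P]ATP in 60 mM Hepes pH 7.5, 3 mM MgCl2, 3 mM MnCl2, 2 mM DTT. 60 min at room temperature, EDTA stop, streptavidin PVT beads read on Leadseeker.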
AuroraB (h), sequence (Q96GD4 whole entry): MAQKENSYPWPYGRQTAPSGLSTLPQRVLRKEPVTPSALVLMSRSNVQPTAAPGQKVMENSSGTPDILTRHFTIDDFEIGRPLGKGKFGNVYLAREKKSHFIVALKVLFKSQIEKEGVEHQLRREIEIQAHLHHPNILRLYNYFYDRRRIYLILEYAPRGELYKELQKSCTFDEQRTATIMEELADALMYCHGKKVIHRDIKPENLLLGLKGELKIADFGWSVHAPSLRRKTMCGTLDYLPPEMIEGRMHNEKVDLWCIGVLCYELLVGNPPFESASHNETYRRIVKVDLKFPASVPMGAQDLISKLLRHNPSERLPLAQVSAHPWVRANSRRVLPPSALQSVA

The test system of the next data set is SKOV3. The data set is described as follows: Cellular proliferation assay (Alamar blue), SKOV3. The class given is cell-based. The conditions noted are these: Homo sapiens, SK-OV-3, SKOV3 cells, 72 hours with compound, 10% FCS, read-out: pIC50 SKOV3 (converted). How it is done: (§1) […] functional properties of these compounds was tested in cellular proliferation assays on a panel of different cell lines in the presence of 10% FCS serum (37° C. and 5% (v/v) CO2). In a first step these cells were seeded and incubated for 24 hours in the absence of compound. In the second step the cells were incubated for 72 hours with the compounds to be tested for 72 hours. The viable cell number was finally assessed in a standard Alamar blue cell viability assay.
(§2) The viable cell number was assessed by incubation for either 4 h (HCT-116, H1299, H460) 6 h (SKOV3, HT29, U87-MG, Colo205) or 24 h (A2780, PC3, MDA-MB-231, A549, MCF-7) with Alamar blue (Resazurin 9 μg/ml, K-Ferrocyanide 90 μM K-Ferricyanide 90 μM) and the converted fluorescent product was quantified on a fluorescent plate readed (544 nm/590 nm). Effect of the compounds is calculated as of on control cells.
For orientation: Alamar Blue is a resazurin reagent that responds to reducing activity.

A further data set has as its system HT-29. The data set is described as follows: Cellular proliferation assay (Alamar blue), HT-29. It counts as cell-based. The note with it: Homo sapiens, HT-29 cells, 72 hours with compound, 10% FCS, read-out: pIC50 HT-29 (converted). How it is done:
as §1, §2

The next data set relates to HCT-116. The data set is described as follows: Cellular proliferation assay (Alamar blue), HCT-116. It counts as cell-based. The conditions noted are these: Homo sapiens, HCT-116, 72 h, HCT-116 cells, 72 hours with compound, 10% FCS, read-out: pIC50 HCT-116 (converted). In short, it runs like this:
(§3)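 Proliferation was assessed over 72 h of compound treatment, following 24 h of seeding without compound, under 10% FCS, 37° C. and 5% CO2. Fluorescent resazurin product was measured and compared with control cells.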

The subject of a further data set is Colo205. The data set is described as follows: Cellular proliferation assay (Alamar blue), Colo205. It counts as cell-based. The note with it: Homo sapiens, COLO 205, Colo205 cells, 72 hours with compound, 10% FCS, read-out: pIC50 Colo205 (converted). As to the method:
as §1, §2

For another data set, the system named is H1299. The data set is described as follows: Cellular proliferation assay (Alamar blue), H1299. It counts as cell-based. The conditions noted are these: Homo sapiens, NCI-H1299, 72 h, H1299 cells, 72 hours with compound, 10% FCS, read-out: pIC50 H1299 (converted). In short, it runs like this: as §3
A further data set has as its system A549. The data set is described as follows: Cellular proliferation assay (Alamar blue), A549. The class given is cell-based. The note with it: Homo sapiens, A549 cells, 72 hours with compound, 10% FCS, read-out: pIC50 A549 (converted). As to the method: as §1, §2
The next data set concerns H460. The data set is described as follows: Cellular proliferation assay (Alamar blue), H460. The class given is cell-based. The note with it: Homo sapiens, NCI-H460, H460 cells, 72 hours with compound, 10% FCS, read-out: pIC50 H460 (converted). As to the method:
as §1, §2

In the next data set the test system is MDA/MB231. The data set is described as follows: Cellular proliferation assay (Alamar blue), MDA/MB231. The note with it: Homo sapiens, MDA-MB-231, 72 h, MDA/MB231 cells, 72 hours with compound, 10% FCS, read-out: pIC50 MDA/MB231 (converted). The class given is cell-based. In short, it runs like this: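 Viable cell number was assessed by resazurin-based Alamar blue fluorescence (544 nm/590 nm) after 72 h compound exposure in 10% FCS at 37° C, which followed a 24 h compound-free seeding period. Dye incubation was 24 h for MDA-MB-231 and 4 h for H460; results expressed versus control cells.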

A further data set relates to MCF-7. The data set is described as follows: Cellular proliferation assay (Alamar blue), MCF-7. The class given is cell-based. The conditions noted are these: Homo sapiens, MCF7, MCF-7 cells, 72 hours with compound, 10% FCS, read-out: pIC50 MCF-7 (converted). As to the method:
as §1, §2

The test system of a further data set is DU-145. The data set is described as follows: Cellular proliferation assay (Alamar blue), DU-145. It counts as cell-based. The note with it: Homo sapiens, DU-145 cells, 72 hours with compound, 10% FCS, read-out: pIC50 DU-145 (converted). As to the method: as §1, §2
The subject of a further data set is A431. The data set is described as follows: Cellular proliferation assay (Alamar blue), A431. The class given is cell-based. The conditions noted are these: Homo sapiens, A-431, A431 cells, 72 hours with compound, 10% FCS, read-out: pIC50 A431 (converted). As to the method: as §1, §2
The next data set deals with PC-3. The data set can be described thus: Cellular proliferation assay (Alamar blue), PC-3. It counts as cell-based. The conditions noted are these: Homo sapiens, PC-3, 72 h, PC-3 cells, 72 hours with compound, 10% FCS, read-out: pIC50 PC-3 (converted). The essentials: as §3
Another data set relates to SK-N-SH. The data set is described as follows: Cellular proliferation assay (Alamar blue), SK-N-SH. The conditions noted are these: Homo sapiens, SK-N-SH cells, 72 hours with compound, 10% FCS, read-out: pIC50 SK-N-SH (converted). The class given is cell-based. How it is done:
as §1, §2

Another data set has as its target GSK3β (h) (Homo sapiens, UniProt P49841). The data set is described as follows: GSK-3β human kinase assay (SPA). It counts as biochemical. The note with it: read-out: GSK3B pIC50 (converted). In short, it runs like this:
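Radiometric SPA read-out: after EDTA stop, biotinylated 33P-labelled peptide bound streptavidin PVT beads and was imaged on Leadseeker. Reaction: 60 min, room temperature, GSK3β (h) at 1 μg/ml, 1 μM substrate peptide, 1 μM ATP with 2 nM [γ-33P]ATP, Tris pH 7.4/MgCl2/DTT buffer.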

A further data set deals with CDK1/CyclinB (h) (Homo sapiens, UniProt P06493). The data set is described as follows: CDK1/CyclinB human kinase assay (FRET). The class given is biochemical. The note with it: read-out: CDK1 pIC50 (converted). The essentials: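 Z'-LYTE FRET format: 0.2 μg/ml enzyme with 2 μM Ser/Thr peptide 12 and 10 μM ATP in 50 mM Hepes pH 7.5, 10 mM MgCl2, 1 mM EGTA, 0.01% Brij-35, 60 min at room temperature. Protease development 60 min; coumarin/fluorescein emission ratio (460/538 nm, excitation 390 nm) reports phosphorylation.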
CDK1/CyclinB (h), sequence (P06493 whole entry): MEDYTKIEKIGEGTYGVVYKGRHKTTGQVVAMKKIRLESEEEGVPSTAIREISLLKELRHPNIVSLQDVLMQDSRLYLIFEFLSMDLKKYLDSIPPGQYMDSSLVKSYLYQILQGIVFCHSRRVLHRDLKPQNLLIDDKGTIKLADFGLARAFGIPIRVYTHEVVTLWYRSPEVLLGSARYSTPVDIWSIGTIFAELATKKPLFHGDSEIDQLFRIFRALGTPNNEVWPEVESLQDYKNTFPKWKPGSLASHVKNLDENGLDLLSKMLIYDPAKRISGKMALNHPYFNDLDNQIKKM
CDK1/CyclinB (h), sequence (P14635 whole entry partner): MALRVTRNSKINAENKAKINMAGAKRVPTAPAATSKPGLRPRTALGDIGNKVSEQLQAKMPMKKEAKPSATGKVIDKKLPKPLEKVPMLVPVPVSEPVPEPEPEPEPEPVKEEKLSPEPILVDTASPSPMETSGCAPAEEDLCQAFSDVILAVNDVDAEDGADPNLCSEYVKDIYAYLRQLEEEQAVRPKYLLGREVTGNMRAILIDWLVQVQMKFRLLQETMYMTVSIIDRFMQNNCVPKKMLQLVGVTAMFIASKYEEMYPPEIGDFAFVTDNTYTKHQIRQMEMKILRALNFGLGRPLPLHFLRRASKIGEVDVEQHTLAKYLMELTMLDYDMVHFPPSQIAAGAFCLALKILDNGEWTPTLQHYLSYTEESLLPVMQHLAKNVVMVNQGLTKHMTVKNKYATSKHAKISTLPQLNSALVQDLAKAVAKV

The next data set deals with A2780. The data set can be described thus: Cellular proliferation assay (Alamar blue), A2780. The class given is cell-based. The note with it: Homo sapiens, A2780, 72 h, A2780 cells, 72 hours with compound, 10% FCS, read-out: pIC50 A2780 (converted). In short, it runs like this:
as §3

The test system of another data set is U87MG. The data set can be described thus: Cellular proliferation assay (Alamar blue), U87MG. It counts as cell-based. The conditions noted are these: Homo sapiens, U-87 MG, 72 h, U87MG cells, 72 hours with compound, 10% FCS, read-out: pIC50 U87MG (converted). In short, it runs like this: as §3

PLK4 (h), sequence (O00444 whole entry): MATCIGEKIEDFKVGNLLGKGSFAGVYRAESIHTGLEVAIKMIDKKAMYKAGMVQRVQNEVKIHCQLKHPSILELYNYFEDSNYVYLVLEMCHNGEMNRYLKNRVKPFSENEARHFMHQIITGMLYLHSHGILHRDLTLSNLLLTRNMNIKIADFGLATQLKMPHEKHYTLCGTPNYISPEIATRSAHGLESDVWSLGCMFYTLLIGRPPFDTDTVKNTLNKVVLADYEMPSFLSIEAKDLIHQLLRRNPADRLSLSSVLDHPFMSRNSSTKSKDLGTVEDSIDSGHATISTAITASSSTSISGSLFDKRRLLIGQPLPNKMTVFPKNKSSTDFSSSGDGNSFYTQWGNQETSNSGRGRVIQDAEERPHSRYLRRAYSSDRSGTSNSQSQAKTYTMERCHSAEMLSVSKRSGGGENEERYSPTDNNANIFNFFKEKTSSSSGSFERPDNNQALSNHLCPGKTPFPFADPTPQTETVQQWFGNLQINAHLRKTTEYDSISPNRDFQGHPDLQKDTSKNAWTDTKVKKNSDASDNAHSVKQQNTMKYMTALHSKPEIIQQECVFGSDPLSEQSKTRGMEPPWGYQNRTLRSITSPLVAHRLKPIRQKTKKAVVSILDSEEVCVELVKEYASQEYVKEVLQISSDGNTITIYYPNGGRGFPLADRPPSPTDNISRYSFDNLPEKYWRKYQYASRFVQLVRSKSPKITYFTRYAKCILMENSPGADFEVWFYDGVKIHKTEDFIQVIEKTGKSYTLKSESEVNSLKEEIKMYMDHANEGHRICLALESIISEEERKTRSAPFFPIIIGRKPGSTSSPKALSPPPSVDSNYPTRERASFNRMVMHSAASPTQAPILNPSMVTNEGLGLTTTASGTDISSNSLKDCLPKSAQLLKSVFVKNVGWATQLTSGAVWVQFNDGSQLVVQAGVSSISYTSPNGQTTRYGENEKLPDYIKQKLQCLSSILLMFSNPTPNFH
GSK3β (h), sequence (P49841 whole entry): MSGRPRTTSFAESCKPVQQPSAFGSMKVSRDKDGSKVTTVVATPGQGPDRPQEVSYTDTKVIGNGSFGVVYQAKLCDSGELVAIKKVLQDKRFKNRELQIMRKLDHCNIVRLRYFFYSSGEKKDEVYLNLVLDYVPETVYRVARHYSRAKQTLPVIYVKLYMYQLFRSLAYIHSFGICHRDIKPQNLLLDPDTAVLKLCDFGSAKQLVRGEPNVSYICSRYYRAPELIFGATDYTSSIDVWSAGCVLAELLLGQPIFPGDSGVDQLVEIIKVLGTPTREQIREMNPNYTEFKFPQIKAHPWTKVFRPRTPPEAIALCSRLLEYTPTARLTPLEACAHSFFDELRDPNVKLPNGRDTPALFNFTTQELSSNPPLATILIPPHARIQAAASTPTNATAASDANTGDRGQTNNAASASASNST

In the case of `O=C1Nc2ncnc3c2C1=CNc1ccc(c(Cl)c1)OCCCCCC(=O)N1CCN3CC1` (mixture of isomers) [Compound 14], the IC50 at PLK4 (h), at AuroraB (h), with SKOV3, with HT-29, with HCT-116 and in the data set on Colo205 was above 10 µM throughout. The IC50 with H1299, in the data set on A549, in the data set with H460, with MDA/MB231, in the data set with MCF-7 and with DU-145 was above 10 µM throughout. The IC50 with A431, in the data set on PC-3 and with SK-N-SH was above 10 µM in each case.
In turn, `CN1CCCC(=O)NCC#Cc2cccc3c2/C(=C/Nc2cccc(c2)S(=O)(=O)N(C)CC1=O)C(=O)N3` [Compound 3] gave a melting point above 240 °C. Also, the IC50 on PLK4 (h) is 3.16 µM. For the same compound, the IC50 at AuroraB (h) was above 10 µM. In addition, the IC50 at GSK3β (h) was 1.86 µM. The IC50 on CDK1/CyclinB (h) is above 10 µM.
For `CN1CC(=O)N(CCN2CCOCC2)CCC(=O)NCC#Cc2cccc3c2/C(=C/Nc2cccc(c2)S1(=O)=O)C(=O)N3` [Compound 5], the melting point was above 240 °C. Moreover, the IC50 on PLK4 (h) was 4.17 µM. The IC50 at AuroraB (h) is 8.32 µM. Also, on GSK3β (h), the IC50 was 8.13 µM. Also, the IC50 at CDK1/CyclinB (h) is above 10 µM.
On to `O=C1Nc2ncnc3c2/C1=C/Nc1ccc(c(Cl)c1)OCCCCCCC(=O)N1CCN3CC1` [Compound 20], for which the IC50 is above 10 µM on AuroraB (h); above 10 µM in the data set on SKOV3; above 10 µM with HT-29; above 10 µM with HCT-116; 7.76 µM in the data set on Colo205; above 10 µM with H1299. Further, the IC50 with A549, in the data set with H460, in the data set with MDA/MB231, in the data set on MCF-7, with DU-145 and in the data set with A431 was above 10 µM throughout. In addition, the IC50 with PC-3 is above 10 µM; in the data set on SK-N-SH it was 6.61 µM.
With `O=C1Nc2ncnc3c2/C1=C/Nc1ccc(c(F)c1)OCCCCCC(=O)N1CCN3CC1` [Compound 22], the IC50 at PLK4 (h), at AuroraB (h), in the data set with SKOV3, in the data set with HT-29, in the data set with HCT-116 and with Colo205 was above 10 µM throughout. Besides, the IC50 with H1299, in the data set on A549, in the data set on H460, in the data set on MDA/MB231, in the data set with MCF-7 and in the data set with DU-145 was above 10 µM each time. For the same compound, the IC50 with A431, with PC-3 and in the data set on SK-N-SH was above 10 µM throughout.
`CN1CCCCCC(=O)N2CCN(CC2)c2ncnc3c2/C(=C/Nc2cccc(c2)C1)C(=O)N3` [Compound 24]: the IC50 is 1.51 µM on PLK4 (h); above 10 µM at AuroraB (h); above 10 µM with A2780; above 10 µM in the data set on SKOV3; above 10 µM in the data set with HT-29; above 10 µM in the data set on HCT-116. The IC50 in the data set with Colo205, in the data set with A549, in the data set on H460, in the data set with MDA/MB231, in the data set on MCF-7 and in the data set on DU-145 was above 10 µM each time. The IC50 in the data set with A431, in the data set on U87MG, with PC-3 and in the data set on SK-N-SH was above 10 µM in each case.

The record behind these values is US8338422B2, “Indolin-2-ones and aza-indolin-2-ones” (Janssen Pharmaceutica NV, priority 2007, dated 2012).
